Test results from ChEMBL document CHEMBL1201862, “PubChem BioAssay data set” (2004).
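Growth conditions: 96-well plates. Treatment: test compound, 48 hours, 5 concentrations. Analysis: linear interpolation between bracketing concentrations; unreached endpoints set to highest concentration. Abbreviation: GI50, concentration required for 50% inhibition of growth.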 Activity calls are given as the source filed them. Rule as the data show it: active = GI50 up to about 1.1 µM and inactive = higher.

Assays:
Assay in all cases: NCI-60 cell line screen, 48 h
CAKI-1 = test system: CAKI-1
SN12C = test system: SN12C
A549 = test system: A549
SK-MEL-28 = test system: SK-MEL-28
UACC-62 = test system: UACC-62
NCI-H226 = test system: NCI-H226
NCI/ADR-RES = test system: NCI/ADR-RES
A498 = test system: A498
NCI-H23 = test system: NCI-H23
MCF7 = test system: MCF7
SF-268 = test system: SF-268
LOX IMVI = test system: LOX IMVI
OVCAR-4 = test system: OVCAR-4
HL-60 = test system: HL-60
Malme-3M = test system: Malme-3M
KM12 = test system: KM12
HOP-92 = test system: HOP-92
HCT-116 = test system: HCT-116
SNB-19 = test system: SNB-19
SR = test system: SR

Measured: GI50

O=[N+]([O-])C(Cl)=C/C(=C(\Cl)SCc1ccccc1)[N+](=O)[O-]
inactive: CAKI-1 18.1 µM | SN12C 18.2 µM | A549 24.8 µM | SK-MEL-28 26.3 µM | UACC-62 28.9 µM | NCI-H226 26.8 µM | NCI/ADR-RES 36.7 µM | A498 27 µM | NCI-H23 37.5 µM | MCF7 38.2 µM | SF-268 28.6 µM | LOX IMVI 16.5 µM | OVCAR-4 18.1 µM | HL-60 5.62 µM | Malme-3M 20.2 µM | KM12 29.5 µM | HOP-92 15.4 µM | HCT-116 18.4 µM | SNB-19 38.4 µM

O=P1(Oc2ccc(Cl)cc2Cl)Oc2ccc3ccccc3c2-c2c(ccc3ccccc23)O1
inactive: CAKI-1 21 µM | SN12C 30.8 µM | A549 49 µM | SK-MEL-28 32.5 µM | UACC-62 26.7 µM | NCI-H226 23.3 µM | NCI/ADR-RES > 68.5 µM | A498 24.8 µM | NCI-H23 29.8 µM | MCF7 33.7 µM | SF-268 34.7 µM | LOX IMVI 24 µM | OVCAR-4 27.9 µM | HL-60 22.9 µM | Malme-3M 21.9 µM | KM12 32.9 µM | HOP-92 22.4 µM | HCT-116 26.5 µM | SNB-19 29.5 µM

CCOC(=O)CCCOc1cc(-c2ccccc2F)nc2cc3c(cc12)OCO3
inactive: CAKI-1 > 100 µM | SN12C > 100 µM | A549 > 100 µM | SK-MEL-28 73.5 µM | UACC-62 84.9 µM | NCI/ADR-RES 46.8 µM | NCI-H23 46.6 µM | MCF7 > 100 µM | LOX IMVI > 100 µM | OVCAR-4 3.71 µM | SR 32 µM | Malme-3M 74.1 µM | KM12 61.9 µM | HOP-92 > 100 µM

CC1=NOC(C)(O)/C1=N/O (configuration not stated)
inactive: CAKI-1 > 100 µM | SN12C > 100 µM | A549 > 100 µM | SK-MEL-28 > 100 µM | UACC-62 > 100 µM | NCI-H226 > 100 µM | NCI/ADR-RES > 100 µM | A498 > 100 µM | NCI-H23 > 100 µM | MCF7 > 100 µM | SF-268 > 100 µM | LOX IMVI > 100 µM | OVCAR-4 > 100 µM | HL-60 > 100 µM | Malme-3M > 100 µM | KM12 > 100 µM | HOP-92 > 100 µM | HCT-116 > 100 µM | SNB-19 > 100 µM

O=C1CCCn2c3ccccc3c3ccnc1c32
inactive: CAKI-1 17.3 µM | SN12C 40.8 µM | A549 44.6 µM | SK-MEL-28 51.6 µM | UACC-62 29.2 µM | NCI-H226 19.4 µM | NCI/ADR-RES 36.6 µM | A498 14.9 µM | NCI-H23 50 µM | MCF7 36.1 µM | SF-268 30 µM | LOX IMVI 36.1 µM | OVCAR-4 49 µM | HL-60 6.89 µM | Malme-3M 35.1 µM | KM12 62.1 µM | HOP-92 > 62.8 µM | HCT-116 30.1 µM | SNB-19 47.3 µM

Cc1ccc(C2=Nc3c(N)nc(N)nc3NC(c3ccccc3)C2)cc1 (configuration not stated)
inactive: CAKI-1 14 µM | SN12C 12.2 µM | A549 10.2 µM | SK-MEL-28 14.4 µM | UACC-62 8.15 µM | NCI-H226 14.4 µM | NCI/ADR-RES 3.97 µM | NCI-H23 11.1 µM | MCF7 8.77 µM | SF-268 14.3 µM | LOX IMVI 10.1 µM | OVCAR-4 14.2 µM | SR 3.56 µM | Malme-3M 9.66 µM | HOP-92 11.7 µM | HCT-116 4.11 µM | SNB-19 14.2 µM

CC(C)c1cc2c(c(O)c1O)[C@@]1(C(=O)O)CCCC(C)(C)[C@@H]1CC2 [CARNOSIC ACID]
inactive: CAKI-1 27.8 µM | SN12C 24 µM | A549 18.2 µM | SK-MEL-28 13.2 µM | UACC-62 13.9 µM | NCI-H226 10.4 µM | NCI/ADR-RES 15.6 µM | NCI-H23 20 µM | MCF7 18.9 µM | SF-268 18.8 µM | LOX IMVI 19.6 µM | OVCAR-4 39.5 µM | SR 5.33 µM | KM12 14 µM | HOP-92 6.22 µM | HCT-116 28.7 µM | SNB-19 > 10 µM

CC(NC(=O)NC(C)(C)C)NC(=O)C(N)CC(=O)O (configuration not stated)
inactive: CAKI-1 > 100 µM | SN12C > 100 µM | A549 > 100 µM | SK-MEL-28 > 100 µM | UACC-62 14.4 µM | NCI-H226 > 100 µM | NCI/ADR-RES > 100 µM | A498 > 100 µM | NCI-H23 > 100 µM | MCF7 > 100 µM | SF-268 > 100 µM | LOX IMVI > 100 µM | OVCAR-4 > 100 µM | Malme-3M > 100 µM | KM12 > 100 µM | HOP-92 > 100 µM | HCT-116 > 100 µM | SNB-19 > 100 µM
